Tests used:
[1] = target: T1, CDK6 protein kinase (GST-CDK6(1-326 end)) (Homo sapiens, UniProt Q00534); experiment: CDK6 protein kinase activity, Caliper mobility shift assay; type: biochemical; conditions: substrate Peptide FAM-P8, 28° C. for 3 h
T1 construct: GST-CDK6(1-326 end); GST (N)
Protocol: (§1) Activity Assay: The CDK6 protein kinase activity was measured using the Caliper mobility shift assay (see J. Biomol. Screen, 2009, PP31). The test compound was dissolved in DMSO and diluted with a kinase buffer solution (20 mM HEPES-pH 7.5, 0.01% Triton X-100, 10 mM MgCl2, 2 mM DTT) and 5 μL of the compound at 5-fold final concentration of reaction dissolved in 10% DMSO was added in a 384-well plate. The compound-free control well was 5 μL of 10% DMSO, and the no-activity control well was 5 μL of kinase buffer. 10 μL of a 2.5-fold diluted CDK6 enzyme solution (GST-CDK6(1-326 end)) was added and incubated at room temperature for 10 min, and then 10 μL of the 2.5-fold diluted substrate solution Peptide FAM-P8 was added. The reaction was stopped by adding 25 μL of stop solution after incubation at 28° C. for 3 h, and the conversion rate data was read on a Caliper EZ Reader II (Caliper Life Sciences) and the conversion rate was converted to inhibition rate data according to above method. Among them, the inhibition rate %=(max−conversion)/(max−min)×100%.

[2] = target: T2, CDK4 protein kinase (GST-CDK4(1-303 end)) (Homo sapiens, UniProt P11802); experiment: CDK4 protein kinase activity, Caliper mobility shift assay; type: biochemical; conditions: substrate Peptide FAM-P8, 28° C. for 3 h
T2 construct: GST-CDK4(1-303 end); GST (N)
Protocol: as §1, with “CDK4” for “CDK6”, “(GST-CDK4(1-303” for “(GST-CDK6(1-326”

T1 sequence (Q00534 whole entry): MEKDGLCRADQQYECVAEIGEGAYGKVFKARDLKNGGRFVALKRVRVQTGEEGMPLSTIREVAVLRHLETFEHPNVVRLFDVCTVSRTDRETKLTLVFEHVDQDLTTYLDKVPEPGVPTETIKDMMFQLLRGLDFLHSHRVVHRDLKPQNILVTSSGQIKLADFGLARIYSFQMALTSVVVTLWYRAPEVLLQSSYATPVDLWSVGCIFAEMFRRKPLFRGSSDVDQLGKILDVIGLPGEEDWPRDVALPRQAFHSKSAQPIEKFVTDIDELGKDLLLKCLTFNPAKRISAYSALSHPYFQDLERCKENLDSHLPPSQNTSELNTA
T1 sequence (P30281 whole entry partner): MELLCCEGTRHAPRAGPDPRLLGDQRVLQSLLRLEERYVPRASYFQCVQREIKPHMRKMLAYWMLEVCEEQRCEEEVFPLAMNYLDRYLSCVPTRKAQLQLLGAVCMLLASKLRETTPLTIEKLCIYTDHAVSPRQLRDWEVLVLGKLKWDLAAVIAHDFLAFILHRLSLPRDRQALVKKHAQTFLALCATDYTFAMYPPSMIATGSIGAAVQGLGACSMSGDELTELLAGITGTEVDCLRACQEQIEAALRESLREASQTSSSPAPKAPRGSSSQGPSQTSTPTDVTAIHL
T2 sequence (P11802 whole entry): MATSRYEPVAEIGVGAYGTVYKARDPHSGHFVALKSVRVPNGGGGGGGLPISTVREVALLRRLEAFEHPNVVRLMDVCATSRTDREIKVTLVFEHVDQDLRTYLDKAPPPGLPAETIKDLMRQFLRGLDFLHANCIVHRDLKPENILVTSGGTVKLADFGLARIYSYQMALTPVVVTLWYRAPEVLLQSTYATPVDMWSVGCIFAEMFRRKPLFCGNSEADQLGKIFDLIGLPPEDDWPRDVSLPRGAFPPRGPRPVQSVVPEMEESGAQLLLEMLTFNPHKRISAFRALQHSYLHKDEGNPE
T2 sequence (P30281 whole entry partner): as the sequence (P30281 whole entry partner) above

| Compound | IC50 [1] [nM] | IC50 [2] [nM] |
| --- | --- | --- |
| CCN1CCN(Cc2ccc(Nc3ncc4c(n3)N(C)C(=O)C(C(C)C)O4)nc2)CC1 (stereo not drawn) [Compound I-15, 6-isopropyl-8-methyl-2-(5-(4-ethyl-1-piperazinyl)methyl-pyridin-2-amino)-6H-pyrimido[5,4-b][1,4]oxazin-7(8H)-one] | 20 to 100 | ≤ 20 |
| CCN1CCN(Cc2ccc(Nc3ncc4c(n3)N(c3ccccn3)C(=O)C(C)(C)O4)nc2)CC1 [Compound I-30, 6,6-dimethyl-8-(2-pyridyl)-2-(5-(4-ethyl-1-piperazinyl)methyl-pyridine-2-amino)-6H-pyrimido[5,4-b][1,4]oxazin-7(8H)-one] | 20 to 100 | ≤ 20 |
| CCN1CCN(Cc2ccc(Nc3ncc4c(n3)N(C3CCCC3)C(=O)C3(CCC3)O4)nc2)CC1 [Compound I-28] | 20 to 100 | ≤ 20 |
| O=C1C(C2CC2)Oc2cnc(Nc3ccc(N4CCNCC4)cn3)nc2N1C1CCCC1 (stereo not drawn) [Compound I-13, 6-cyclopropyl-8-cyclopentyl-2-(5-(1-piperazinyl)-pyridin-2-amino)-6H-pyrimido[5,4-b][1,4]oxazin-7(8H)-one] | ≤ 20 | ≤ 20 |
| 8′-cyclopentyl-2′-(5-(4-ethyl-1-piperazinyl)-pyridin-2-amino)spiro[cycloprop-1,6′-pyrimido[5,4-b][1,4]oxazin]-7′(8′H)-one [Compound I-25] | ≤ 20 | ≤ 20 |
| O=C1N(C2CCCC2)c2nc(Nc3ccc(N4CCNCC4)cn3)ncc2OC12CCC2 [Compound I-5, 8′-cyclopentyl-2′-(5-(1-piperazinyl)-pyridin-2-amino)spiro[cyclobut-1,6′-pyrimido[5,4-b][1,4]oxazin]-7′(8′H)-one] | 20 to 100 | ≤ 20 |
| CC1(C)Oc2cnc(Nc3ccc(N4CCNCC4)cn3)nc2N(c2ccccc2)C1=O [Compound I-35, 6,6-dimethyl-8-phenyl-2-(5-(1-piperazinyl)-pyridin-2-amino)-6H-pyrimido[5,4-b][1,4]oxazin-7(8H)-one] | 20 to 100 | 20 to 100 |
| CC1(C)Oc2cnc(Nc3ccc(N4CCN(C5CCCC5)CC4)cn3)nc2N(C2CCCC2)C1=O [Compound I-21, 6,6-dimethyl-8-cyclopentyl-2-(5-(4-cyclopentyl-1-piperazinyl)-pyridin-2-amino)-6H-pyrimido[5,4-b][1,4]oxazin-7(8H)-one] | 20 to 100 | ≤ 20 |
| O=C1N(C2CCCC2)c2nc(Nc3ccc(N4CCNCC4)cn3)ncc2OC12CC2 [Compound I-4, 8′-cyclopentyl-2′-(5-(1-piperazinyl)-pyridin-2-amino)spiro[cycloprop-1,6′-pyrimido[5,4-b][1,4]oxazin]-7′(8′H)-one] | 20 to 100 | ≤ 20 |
| O=C1N(C2CCCC2)c2nc(Nc3ccc(N4CCNCC4)cn3)ncc2OC12CCCC2 [Compound I-6, 8′-cyclopentyl-2′-(5-(1-piperazinyl)-pyridin-2-amino)spiro[cyclopenta-1,6′-pyrimido[5,4-b][1,4]oxazin]-7′(8′H)-one] | 20 to 100 | ≤ 20 |
| CC(C)N1CCN(c2ccc(Nc3ncc4c(n3)N(C3CCCC3)C(=O)C(C)(C)S4)nc2)CC1 [Compound I-24, 6,6-dimethyl-8-cyclopentyl-2-(5-(4-isopropyl-1-piperazinyl)-pyridin-2-amino)-6H-pyrimido[5,4-b][1,4]thiazin-7(8H)-one] | ≤ 20 | ≤ 20 |
| CC1(C)Oc2cnc(Nc3ccc(N4CCNCC4)cn3)nc2N(c2cccs2)C1=O [Compound I-29, 6,6-dimethyl-8-(2-thienyl)-2-(5-(1-piperazinyl)-pyridin-2-amino)-6H-pyrimido[5,4-b][1,4]oxazin-7(8H)-one] | ≤ 20 | ≤ 20 |

Reference: patent US10351578B2, “Heterocyclic-substituted pyridinopyrimidinone derivative as CDK inhibitor and use thereof” (Shanghai Xunhe Pharmaceutical Technology Co. Ltd., priority 2016, dated 2019)
